Assays:
LecA [1] = target: T1, LecA (Pseudomonas aeruginosa, UniProt Q05097); assay: Direct binding to immobilized LecA by surface plasmon resonance (SPR); conditions: for kon: SPR single-cycle kinetics, 25 °C, N=3 (I1 N=1); for Relative potency r.p. (SPR): compared to respective monovalent compound in each series
T1 construct: made in house
Experimental: K d values were oscillating with the number of methylene units present in the linker, presumably linked to the zig‐zag geometry of the hydrocarbon chain.
Expression and purification of LecA as well as competitive binding by fluorescence polarization was performed as described by Joachim et al..[9] […]
Surface plasmon resonance experiments were performed on a BIACORE X100 instrument (GE Healthcare) at 25 °C as described by Zahorska et. al..[8] Averages and standard deviations were calculated from three independent experiments. […]
Figure S3: SPR of divalent LecA ligands from benzene series. Sensorgrams obtained from SPR single-cycle kinetics experiments. Five different concentrations of each compound (0, 10, 50, 100, 200 nM) were sequentially injected to obtain the experimental sensorgrams (blue lines), which were then fitted by a 1:1 model (orange) on BIACORE evaluation software. […]
Figure S4: SPR of divalent LecA ligands from pyridine and sulfonated series. Sensorgrams obtained from SPR single-cycle kinetics experiments. Five different concentrations of each compound (0, 10, 50, 100, 200 nM) were sequentially injected to obtain the experimental sensorgrams (blue lines), which were then fitted by a 1:1 model (orange) on BIACORE evaluation software.
(also on this page, place not known: Response (RU)0 Response (RU)0 Response (RU) Response (RU) Response (RU) Response (RU) 030060090012001500) […]

LecA [2] = target: T1, LecA; assay: Competitive binding assay based on fluorescence polarization
Experimental: All synthesized galactosides were then evaluated for LecA inhibition using a competitive binding assay based on fluorescence polarization (Figure S1).[24]
Expression and purification of LecA as well as competitive binding by fluorescence polarization was performed as described by Joachim et al..[9] The assay was performed in TBS/Ca2+ buffer (20 mM Tris, 137 mM NaCl, 2.6 mM KCl at pH 7.4 supplemented with 1 mM CaCl2) in presence of 25% DMSO. Averages and standard deviations were calculated from at least three independent experiments. […]
RR OR In h i b i to r [µ M ]
R R In h i b i to r [µ M ] […]
R In h i b i to r [µ M ] 30 L2
30 F2 40 K2 In h i b i to r [µ M ] […]
In h i b i to r [µ M ] In h i b i to r [µ M ]
Figure S1: Evaluation of amide divalent LecA ligands in a competitive binding assay based on fluorescence […]
representative experiment is shown or each series. Averages and standard deviations from at least three independent titrations of triplicates each.
[…] Fluorescence polarization [mP] -1 0 1 2 3 0 1001010 Me-α-Gal pNO2-Ph-β-Gal 1000 Inhibitor [µM] Fluorescence polarization [mP])

LecA [3] = target: T1, LecA; assay: LecA binding and cellular uptake by fluorescence confocal microscopy; type: cell-based; conditions: for Concentration for complete inhibition of LecA binding and cellular uptake: 0.5 μM LecA-AF488, H1299 cells, confocal microscopy; for LecA binding to H1299 cells (fluorescence signal): 10 μM inhibitor
Experimental: The ability of H2 and L2 to diminish LecA binding to host receptors at the plasma membrane and its subsequent internalization into H1299 cells was further analyzed by confocal fluorescence microscopy. Here, the applied LecA concentration was increased to improve signal to noise and consequently image quality and inhibitors were preincubated with 0.5 μM LecA before addition to the cells. […] Confocal microscopy images thus confirmed that the divalent inhibitors can prevent LecA binding to the cell surface and reduce lectin uptake in a concentration‐dependent manner. […]
LecA binding and cellular uptake by fluorescence confocal microscopy
Between 5 and 7 × 10^4 cells were seeded on a 12 mm glass coverslip to which they adhered overnight, at 37 °C and 5% CO2. The next day, the cells were incubated with 0.5 µM LecA-AF488 for 30 min at 4 °C and protected from light. Where indicated, LecA was firstly preincubated with PNPG, G2, K2, H2 or L2 in RPMI medium, for 30 min at room temperature and protected from light and then added to the cells for further incubation (30 min, 4 °C).
Subsequently, cells were washed with PBS (-/-) to remove the unbound lectin and inhibitors and the samples were incubated for 1 h at 37 °C. After the lectin stimulation, cells were washed twice with ice-cold PBS (-/-), fixed with 4% paraformaldehyde solution for 15 min and quenched with 50 mM ammonium chloride for 10 min. The membrane was permeabilized and cells were blocked by 0.2% Saponin in 3% BSA in PBS (w/v) for 30 min. The cell nuclei were counterstained with DAPI (5 × 10-9 g/L), and the samples were mounted on coverslips using Mowiol 4-88 (containing the anti-bleaching reagent DABCO). Samples were visualized with laser scanning confocal microscope system from Nikon (Eclipse Ti-E, A1R), equipped with a 60x oil immersion objective and a numerical aperture (NA) of 1.49. The images were analyzed

T1 sequence (Q05097 whole entry): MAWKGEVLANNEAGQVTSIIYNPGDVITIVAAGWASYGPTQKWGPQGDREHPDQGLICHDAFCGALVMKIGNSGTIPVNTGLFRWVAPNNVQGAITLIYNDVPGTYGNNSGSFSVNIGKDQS

O=C(/C=C/c1ccc(O[C@@H]2O[C@H](CO)[C@H](O)[C@H](O)[C@H]2O)cc1)Nc1ccc(OCCOc2ccc(NC(=O)/C=C/c3ccc(O[C@@H]4O[C@H](CO)[C@H](O)[C@H](O)[C@H]4O)cc3)cc2)cc1 [Compound D1]
Kd (LecA [1]): 0.0407 ± 0.003 µM | koff (LecA [1]): 0.00249 ± 0.00028 s⁻¹ | kon (LecA [1]): 61.1 ± 2.5 x10^3/Ms | Relative potency r.p. (SPR) (LecA [1]): 128 | IC50 (LecA [2]): 5.6 ± 3.1 µM

O=C(CCc1ccc(O[C@@H]2O[C@H](CO)[C@H](O)[C@H](O)[C@H]2O)cc1)Nc1ccc(OCCOc2ccc(NC(=O)CCc3ccc(O[C@@H]4O[C@H](CO)[C@H](O)[C@H](O)[C@H]4O)cc3)cc2)cc1 [Compound D2]
Kd (LecA [1]): 0.0231 ± 0.0003 µM | koff (LecA [1]): 0.00284 ± 6e-05 s⁻¹ | kon (LecA [1]): 123 ± 4.1 x10^3/Ms | Relative potency r.p. (SPR) (LecA [1]): 233 | IC50 (LecA [2]): 4.5 ± 1.8 µM

COc1ccc(NC(=O)CCc2ccc(O[C@@H]3O[C@H](CO)[C@H](O)[C@H](O)[C@H]3O)cc2)cn1 [Compound G2]
Concentration for complete inhibition of LecA binding and cellular uptake (LecA [3]): 75 µM | Kd (LecA [1]): 2.97 ± 0.08 µM | Relative potency r.p. (SPR) (LecA [1]): 1 | IC50 (LecA [2]): 14.3 ± 7.2 µM

O=C(/C=C/c1ccc(O[C@@H]2O[C@H](CO)[C@H](O)[C@H](O)[C@H]2O)cc1)Nc1ccc(OCCOc2ccc(NC(=O)/C=C/c3ccc(O[C@@H]4O[C@H](CO)[C@H](O)[C@H](O)[C@H]4O)cc3)cn2)nc1 [Compound H1]
Kd (LecA [1]): 0.0137 ± 0.0016 µM | koff (LecA [1]): 0.00165 ± 0.00012 s⁻¹ | kon (LecA [1]): 121 ± 6.8 x10^3/Ms | Relative potency r.p. (SPR) (LecA [1]): 217 | IC50 (LecA [2]): 8 ± 4.3 µM

O=C(CCc1ccc(O[C@@H]2O[C@H](CO)[C@H](O)[C@H](O)[C@H]2O)cc1)Nc1ccc(OCCOc2ccc(NC(=O)CCc3ccc(O[C@@H]4O[C@H](CO)[C@H](O)[C@H](O)[C@H]4O)cc3)cn2)nc1 [Compound H2]
LecA binding to H1299 cells (fluorescence signal) (LecA [3]): remarkably decreased | Kd (LecA [1]): 0.0099 ± 0.0001 µM | koff (LecA [1]): 0.00141 ± 5e-05 s⁻¹ | kon (LecA [1]): 142 ± 3.5 x10^3/Ms | Relative potency r.p. (SPR) (LecA [1]): 300 | IC50 (LecA [2]): 4.8 ± 2.2 µM

Cc1ccc(NC(=O)CCc2ccc(O[C@@H]3O[C@H](CO)[C@H](O)[C@H](O)[C@H]3O)cc2)cc1S(=O)(=O)O [Compound K2]
Concentration for complete inhibition of LecA binding and cellular uptake (LecA [3]): 75 µM | Kd (LecA [1]): 3.79 ± 0.1 µM | Relative potency r.p. (SPR) (LecA [1]): 1 | IC50 (LecA [2]): 14.4 ± 3.6 µM

O=C(CCc1ccc(O[C@@H]2O[C@H](CO)[C@H](O)[C@H](O)[C@H]2O)cc1)Nc1ccc(CCc2ccc(NC(=O)CCc3ccc(O[C@@H]4O[C@H](CO)[C@H](O)[C@H](O)[C@H]4O)cc3)cc2S(=O)(=O)O)c(S(=O)(=O)O)c1 [Compound L2]
LecA binding to H1299 cells (fluorescence signal) (LecA [3]): remarkably decreased | Kd (LecA [1]): 0.0328 ± 0.0015 µM | koff (LecA [1]): 0.00707 ± 0.0011 s⁻¹ | kon (LecA [1]): 215 ± 29 x10^3/Ms | Relative potency r.p. (SPR) (LecA [1]): 115 | IC50 (LecA [2]): 4.6 ± 2.2 µM
